Literature values as cited in PMC4368888, “Preclinical to Clinical Translation of CNS Transporter Occupancy of TD-9855, a Novel Norepinephrine and Serotonin Reuptake Inhibitor” (International Journal of Neuropsychopharmacology, 2015).

How the values were obtained:
[1] = tested on: SERT and NET; settings: in vitro; ref Wu et al., 2008; Tsuruda et al., 2010; cited from earlier work
[2] = target: SERT (Homo sapiens, UniProt P31645); settings: approved dose (100mg) for fibromyalgia; ref Nogami et al., 2013; cited from earlier work
Chain of SERT (P31645 whole entry): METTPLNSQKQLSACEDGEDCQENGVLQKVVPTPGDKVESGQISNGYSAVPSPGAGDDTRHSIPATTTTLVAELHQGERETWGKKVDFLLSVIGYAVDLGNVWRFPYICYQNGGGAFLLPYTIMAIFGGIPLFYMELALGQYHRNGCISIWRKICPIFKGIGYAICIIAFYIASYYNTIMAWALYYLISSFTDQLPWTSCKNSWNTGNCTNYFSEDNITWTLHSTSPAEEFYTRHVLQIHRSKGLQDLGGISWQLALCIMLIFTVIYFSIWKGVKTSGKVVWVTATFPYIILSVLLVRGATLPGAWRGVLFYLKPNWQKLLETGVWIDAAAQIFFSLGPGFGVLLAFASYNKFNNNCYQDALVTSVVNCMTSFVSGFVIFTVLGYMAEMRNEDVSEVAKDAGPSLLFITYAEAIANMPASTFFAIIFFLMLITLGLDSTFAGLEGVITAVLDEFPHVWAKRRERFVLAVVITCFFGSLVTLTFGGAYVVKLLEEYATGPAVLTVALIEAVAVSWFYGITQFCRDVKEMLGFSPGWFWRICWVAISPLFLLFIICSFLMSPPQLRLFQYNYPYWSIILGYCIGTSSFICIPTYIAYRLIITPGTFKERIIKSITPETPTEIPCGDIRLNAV

SMILES | functional selectivity for NE [1] | occupancy of SERT [2]
CNCC[C@@H](Oc1ccccc1C)c1ccccc1 [atomoxetine] | ≥ 20 fold | 
CCN(CC)C(=O)C1(c2ccccc2)CC1CN (centres unmarked) [milnacipran] |  | ~ 40%
